Data set [1] can be described thus: Plasma protein binding (equilibrium dialysis), mouse. The conditions noted are these: pH 7.4, 6 hours dialysis; for fraction unbound at 6 h, 1 μM: read-out: Mean % Bound Mouse (converted). It is filed as in vitro ADME. As to the method:
Example 204 Plasma Protein Binding Measurements
The plasma protein binding was measured as the following procedure.
1) Preparation of 100 mM sodium phosphate and 150 mM NaCl buffer (PBS)
A basic solution was prepared by dissolving 14.2 g/L Na2HPO4 and 8.77 g/L NaCl in deionized water and the solution could be stored at 4° C. for up to 7 days. An acidic solution was prepared by dissolving 12.0 g/L NaH2PO4 and 8.77 g/L NaCl in deionized water and the solution could be stored at 4° C. for up to 7 days. The basic solution was titrated with the acidic solution to pH 7.4 and store at 4° C. for up to 7 days. pH was checked on the day of experiment and was adjusted if outside specification of 7.4±0.1.
Frozen plasma was thawed immediately at room temperature.
The plasma was centrifuged at 3,220 g for 10 minutes to remove clots and supernatant was collected into a fresh tube. The pH of the plasma was checked and recorded.
Note: a). Only use plasma that has been thawed no more than twice since arrival. b). Only use plasma within the range of pH 7 to pH 8.
3) Preparation of working solutions
The working solutions of test compounds and control compound ketoconazole were prepared in DMSO at the concentration of 200 μM. And then 3 μL of working solution was removed to mix with 597 μL of human, rat or mouse plasma to achieve a final concentration of 1 μM (0.5% DMSO). Plasma samples were vortexed thoroughly.
4) Preparation of dialysis membranes
The dialysis membranes were soaked in ultrapure water for 60 minutes to separate strips, then in 20% ethanol for 20 minutes, finally in dialysis buffer for 20 minutes.
5) Procedure for equilibrium dialysis
The dialysis apparatus was assembled according to the manufacturer's instruction. Each cell was filled with 120 μL of plasma sample and dialyzed against equal volume of dialysis buffer (PBS). The assay was performed in duplicate. The dialysis plate was sealed and incubated in an incubator at 37° C. with 5% CO2 at 100 rpm for 6 hours. At the end of incubation, seal was removed and 50 μL of samples from both buffer and plasma chambers were transferred to wells of a 96-well plate.
6) Procedure for sample analysis
50 μL of blank plasma was added to each buffer samples and an equal volume of PBS was supplemented to the collected plasma sample. 300 μL of room temperature quench solution (acetonitrile containing internal standards (1S, 100 nM Alprazolam, 500 nM Labetalol and 2 μM Ketoprofen)) was added to precipitate protein. Samples in plate were vortexed for 5 minutes and centrifuged at 3,220 g for 30 minutes at 4° C. And then 100 μL of the supernatant was transferred to a new 96-well plate with 100 μL or 200 μL water (depends on the LC-MS signal response and peak shape) for LC-MS/MS analysis.
Calculate the percentages of test compound and control compound bound as follows:
% Free=(Peak Area Ratiobuffer chamber/Peak Area Ratioplasma chamber)*100
% Recovery=(Peak Area Ratiobuffer chamber+Peak Area Ratioplasma chamber)/Peak Area Ratio total sample*100
Peak Area Ratiobuffer chamber means the conc for free fraction
Peak Area Ratioplasma chamber means the conc for both free and bound fraction
Peak Area Ratiototal sample means the conc for starting sample before incubation
(In general: Equilibrium dialysis compares concentrations on both sides of a semipermeable membrane.)

Data set [2] can be described thus: Liver microsomes metabolic stability assay, rat. It is filed as in vitro ADME. The conditions noted are these: male, rat liver microsomes 0.5 mg/mL, 37° C.; for half-life at 2 μM: read-out: t1/2 Rat. Put shortly:
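Pooled human, male rat or male mouse liver microsomes (0.5 mg/mL final) incubated at 37° C with 2 μM compound, with or without 1 mM NADPH. Samples at 0-60 min quenched in cold acetonitrile and analyzed by LC-MS/MS in duplicate. t1/2 derived from ln(% remaining) vs time slope, converted to CLint (μL/min/mg).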

8 molecules from patent US20210395256A1, “TYROSINE KINASE INHIBITORS, COMPOSITIONS AND METHODS THERE OF” (Betta Pharmaceuticals Co., Ltd., priority 2018, published 2021) can be followed below.

A word on the microsomal CLint: it is a measure of how fast metabolising enzymes remove a compound, apart from limits set by blood flow. A lower microsomal CLint goes with greater metabolic stability. In the case of `Cc1nnc(-c2cnn3ccc(N4CCCC4c4cc(F)ccc4F)nc23)[nH]1` (centres unmarked) [Comparative compound A, 5-[2-(2,5-Difluorophenyl)pyrrolidin-1-yl]-3-(5-methyl-1H-1,2,4-triazol-3-yl)pyrazolo[1,5-a]pyrimidine, reference compound], in data set [1], the recovery at 6 h, 1 μM was 89.4% and the fraction unbound at 6 h, 1 μM was 0.0488. Moreover, in data set [2], the microsomal CLint at 2 μM was 78.5 µL/min/mg and the half-life at 2 μM worked out at 17.7 min.
For `C[C@H](O)c1nnc(-c2cnn3ccc(N4CCC[C@@H]4c4cc(F)ccc4F)nc23)[nH]1` [Compound 4, (S)-1-(5-(5-((R)-2-(2,5-difluorophenyl)pyrrolidin-1-yl)pyrazolo[1,5-a]pyrimidin-3-yl)-4H-1,2,4-triazol-3-yl)ethan-1-ol], the fraction unbound at 6 h, 1 μM in data set [1] was 0.0443. Moreover, in data set [2], the microsomal CLint at 2 μM was found to be 29.3 µL/min/mg and the half-life at 2 μM amounted to 47.3 min.
Turning to `CC(C)(O)c1nnc(-c2cnn3ccc(N4CCC[C@@H]4c4cc(F)ccc4F)nc23)[nH]1` [Compound 7, (R)-2-(5-(5-(2-(2,5-difluorophenyl)pyrrolidin-1-yl)pyrazolo[1,5-a]pyrimidin-3-yl)-4H-1,2,4-triazol-3-yl)propan-2-ol], in data set [1], the recovery at 6 h, 1 μM is 89.4% and the fraction unbound at 6 h, 1 μM was 0.0929. In data set [2], the microsomal CLint at 2 μM came to 25.3 µL/min/mg and the half-life at 2 μM came out at 54.9 min.
In the case of `C[C@H](N)c1nnc(-c2cnn3ccc(N4CCC[C@@H]4c4cc(F)ccc4F)nc23)[nH]1` [Compound 11, (S)-1-(5-(5-((R)-2-(2,5-difluorophenyl)pyrrolidin-1-yl)pyrazolo[1,5-a]pyrimidin-3-yl)-4H-1,2,4-triazol-3-yl)ethan-1-amine], in data set [1], the recovery at 6 h, 1 μM was found to be 85.5% and the fraction unbound at 6 h, 1 μM is 0.244. Further, the intrinsic clearance (microsomal CLint) at 2 μM in data set [2] amounted to 5.23 µL/min/mg.
`OC1(c2nnc(-c3cnn4ccc(N5CCC[C@@H]5c5cc(F)ccc5F)nc34)[nH]2)CCC1` [Compound 23, (R)-1-(5-(5-(2-(2,5-difluorophenyl)pyrrolidin-1-yl)pyrazolo[1,5-a]pyrimidin-3-yl)-4H-1,2,4-triazol-3-yl)cyclobutan-1-ol]: the fraction unbound at 6 h, 1 μM in data set [1] was 0.0397. In data set [2], the intrinsic metabolic clearance (microsomal CLint) at 2 μM stood at 50 µL/min/mg and the half-life at 2 μM turned out to be 27.7 min.
In the case of `CC(C)(O)Cc1nnc(-c2cnn3ccc(N4CCC[C@@H]4c4cc(F)ccc4F)nc23)[nH]1` [Compound 30, (R)-1-(5-(5-(2-(2,5-difluorophenyl)pyrrolidin-1-yl)pyrazolo[1,5-a]pyrimidin-3-yl)-4H-1,2,4-triazol-3-yl)-2-methylpropan-2-ol], in data set [1], the recovery at 6 h, 1 μM amounted to 90% and the fraction unbound at 6 h, 1 μM was 0.0887. Also, in data set [2], the microsomal CLint at 2 μM is 69.6 µL/min/mg and the half-life at 2 μM stood at 19.9 min.
The like results for `OC1CC(c2nnc(-c3cnn4ccc(N5CCC[C@@H]5c5cc(F)ccc5F)nc34)[nH]2)C1` (stereo partly drawn) [Compound 31, (R)-3-(5-(5-(2-(2,5-difluorophenyl)pyrrolidin-1-yl)pyrazolo[1,5-a]pyrimidin-3-yl)-4H-1,2,4-triazol-3-yl)cyclobutan-1-ol] were, in that order, 94.2%, 0.0998, 69.1 µL/min/mg and 20.1 min.
In the case of `C[C@@H](CO)c1nnc(-c2cnn3ccc(N4CCC[C@@H]4c4cc(F)ccc4F)nc23)[nH]1` [Compound 39, (R)-2-(5-(5-((R)-2-(2,5-difluorophenyl)pyrrolidin-1-yl)pyrazolo[1,5-a]pyrimidin-3-yl)-4H-1,2,4-triazol-3-yl)propan-1-ol], in data set [1], the recovery at 6 h, 1 μM stood at 91.3% and the fraction unbound at 6 h, 1 μM was 0.0676. In addition, in data set [2], the microsomal CLint at 2 μM stood at 80.2 µL/min/mg and the half-life at 2 μM amounted to 17.3 min.
